Assay results: publication PMC6013220, “Activation of TREK currents by riluzole in three subgroups of cultured mouse nodose ganglion neurons” (PLoS ONE, 2018)

Columns and labels:
human TRESK (KCNK18) = target: T1, human TRESK (KCNK18) (Homo sapiens, UniProt Q7Z418); assay: whole-cell patch clamp, current at -40 mV; type: cell-based
T1 construct: full-length cDNA in pcDNA3.1, co-transfected with separate GFP cDNA in tsA201 cells
T1 sequence (Q7Z418 1-384): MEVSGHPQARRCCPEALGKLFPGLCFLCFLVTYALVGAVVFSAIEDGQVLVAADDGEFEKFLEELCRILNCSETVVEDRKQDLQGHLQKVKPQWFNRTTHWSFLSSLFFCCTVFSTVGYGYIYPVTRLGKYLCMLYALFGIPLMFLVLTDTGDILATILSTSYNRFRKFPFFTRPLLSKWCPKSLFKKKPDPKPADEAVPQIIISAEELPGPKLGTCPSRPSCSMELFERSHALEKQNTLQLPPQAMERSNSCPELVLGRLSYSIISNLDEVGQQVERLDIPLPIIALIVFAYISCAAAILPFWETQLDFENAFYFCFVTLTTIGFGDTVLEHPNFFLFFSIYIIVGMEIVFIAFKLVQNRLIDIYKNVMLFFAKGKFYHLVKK

[1] = test system: T2, TREK subfamily channels (TREK-1, TREK-2 and TRAAK); assay: whole-cell perforated patch clamp, outward current in native neurons; type: cell-based, Mus musculus; settings: activator, unreliable (extrapolated), holding -30 mV, blocker cocktail, room temperature
T2 construct: gene Kcnk2; native channels in cultured nodose ganglion neurons; the authors argue mainly TREK-1, subtype not proven

Nc1nc2ccc(OC(F)(F)F)cc2s1 [riluzole]
inhibition at 100 µM (human TRESK (KCNK18)): 64% | EC50 [1]: 392.2 ± 182.8 µM
